Laboratory results reported in US9045403B2 (Coyote Pharmaceuticals, Inc., priority 2012, dated 2015).

How the values were obtained:
[1] = Blood chemistry and hematology in Sod1 mutant and wild type mice; conditions: daily oral 12 mg/kg
Procedure: (§1) A total of 84 male mice (64 transgenic Sod1 mutant mice; 20 wild type mice) were included in the study. Dosing was administered daily beginning at postnatal day 38 (P38) via a single bolus oral gavage injection.
(§2) Blood and serum samples from days P70 and P100 were collected on three animals from each of the six treatment groups. Hematology measures were white blood cell count, red blood cell count, hemoglobin, hematocrit, mean corpuscular volume, mean corpuscular hemoglobin, mean corpuscular hemoglobin concentration, and platelets. Chemistry values were alanine aminotransferase, aspartate aminotransferase, albumin, total protein, gamma globulin, blood urea nitrogen, cholesterol, and glucose.

[2] = Pharmacokinetics of CNS-102 in rats, IV and oral; type: in vivo; conditions: rat
Procedure: Rats were administered a single dose of CNS-102 either intravenously (12 mg/kg) or orally (24 mg/kg), and blood samples were taken to measure the average plasma concentrations of CNS-102 over time.
The formulation for this study includes the following: […]
AUC(0-last) (min*ng/ml): area under the concentration-time curve from zero up to the last measurable time-point.
lz (1/min): the first order rate constant associated with the terminal (log-linear) portion of the curve, estimated by linear regression of time vs. log concentration.
Terminal Half-Life (t½)=ln(2)/lz: calculated using Lambda_z method to find best fit. If necessary, the concentration-time points were manually selected for use in the calculation. Bolded-italicized concentrations indicate points used for calculation.
AUC(0-inf) (min*ng/ml): Area under the concentration-time curve from zero up to infinity, based on the last observed concentration. Requires lz.

[3] = test system: Sprague Dawley rats, KA injected into the hippocampus; test: Neuroprotection by CNS-102 in the presence of GGA cis-isomer in the kainic acid model; type: in vivo; conditions: 24 mg/Kg rat oral; KA at 72 hours
Procedure: After dosing, KA was stereotactically injected into the hippocampus at 72 hours to induce neuron damage. After 24 h, hippocampus tissue was collected, stained, and imaged. The scans were analyzed by Image J to calculate the fraction of cells having KA-induced damage.

[4] = test system: Mouse Neuro2A neuroblastoma cells; test: Neuro2A cells with neurites after GGTI-298 (Example 16); type: cell-based; conditions: 10 μM, 48 hrs
Procedure: Mouse Neuro2A neuroblastoma cells were cultured in DMEM supplemented with 10% FBS for 24 hrs. […] Then differentiation was induced by retinoic acid in DMEM supplemented with 2% FBS. The cell culture was incubated with a Geranylgeranyl Transferase inhibitor, GGTI-298. […]

[5] = test system: Neuro2A cells; test: Neuro2A cells that extended neurites, with GGTI-298 (Example 18); type: cell-based, mouse; conditions: 0.1-1 μM, vehicle 0.0-0.20
Description: After differentiation was induced, cells that extended neurites were counted.

[6] = test system: Sprague-Dawley rats injected with Kainic acid; test: Kainic acid induced neurodegeneration and seizure in rats (Example 21); type: in vivo, rat; conditions: oral
Description: Seizure behaviors were observed and scored (Ref. R. J. Racine, Modification of seizure activity by electrical stimulation: II. Motor seizure, Electroencephalogr. Clin. Neurophysiol. 32 (1972) 281-294. Modifications were made for the methods). Brain tissues of rats were sectioned on histology slides, and neurons in hippocampus tissues were stained by Nissl. Neurons damaged by Kainic acid and behavior scores were quantified.

[7] = test system: rats, kainic acid model; test: Concentration dependence of neuroprotection in the kainic acid model; type: in vivo, rat; conditions: one dose at 0, 1, 3, 6, 12 or 24 mg/kg; fraction of cells damaged
Procedure: The fraction of cells damaged in the kainic acid model was determined on 130 rats, each receiving one dose of CNS-102 at either 0, 1, 3, 6, 12 or 24 mg/kg. PBS was used for dosing at 0 mg/kg. The linear model of the log10 percent damage versus concentration is graphically shown FIG. 5.

[8] = mouse, in vivo, po, 12 mg/kg
Procedure: as §1, §2

[9] = test system: HSP70; test: HSP70 expression in cortex and hippocampus by western blot after oral dosing; type: in vivo, rat; design: HSP70 expression, treatment average: scale not given here
Procedure: The time course of protein expression, as measured by western blot for HSP70, was determined in triplicate for hippocampus, and cortex tissue samples taken from each of 5 animals per group at each of four time points (24, 48, 72, and 96 h) after treatment with either PBS or 12 mg/kg CNS-102, administered orally. The average expression for each treatment group is calculated at each time point for each tissue using PROC MIXED in SAS and are tabulated, along with the difference (delta) between treatment averages and a p-value comparing the difference to zero, below.

[10] = Cortex, 24 hours after 12 mg/kg oral
[11] = Cortex, 48 hours after 12 mg/kg oral
[12] = Cortex, 72 hours after 12 mg/kg oral
[13] = Cortex, 96 hours after 12 mg/kg oral
[14] = Hippocampus, 24 hours after 12 mg/kg oral
[15] = Hippocampus, 48 hours after 12 mg/kg oral
[16] = Hippocampus, 72 hours after 12 mg/kg oral
[17] = Hippocampus, 96 hours after 12 mg/kg oral

CC(=O)CC/C=C(\C)CC/C=C(\C)CC/C=C(\C)CCC=C(C)C [CNS-102]
cholesterol levels (in words) [1]: cholesterol levels were reduced
AUC(0-inf), Average ([2]; 12 mg/kg IV): 208728 ng·min/mL
AUC(0-last), Average ([2]; 12 mg/kg IV): 115146 ng·min/mL
C0, Average ([2]; 12 mg/kg IV): 9144.0 ng/mL
Vss, Average ([2]; 12 mg/kg IV): 9.796 L/kg
Vz, Average ([2]; 12 mg/kg IV): 12.039 L/kg
t1/2, Average ([2]; 12 mg/kg IV): 2.45 h
AUC(0-inf), Average ([2]; 24 mg/kg oral): 204878 ng·min/mL
AUC(0-last), Average ([2]; 24 mg/kg oral): 189114 ng·min/mL
Cmax, Average ([2]; 24 mg/kg oral): 752.9 ng/mL
Tmax, Average ([2]; 24 mg/kg oral): 5.67 h
t1/2, Average ([2]; 24 mg/kg oral): 1.72 h
F(0-inf), Average ([2]; 24 mg/kg oral vs 12 mg/kg IV): 49.1%
F(0-last), Average ([2]; 24 mg/kg oral vs 12 mg/kg IV): 82.1%
Mean of Hippocampus CA3 neurons damaged (Arbitrary units) [3]: 19.8182 Arbitrary units
Mean of cell numbers (Arbitrary units) [4]: 0.738 Arbitrary units
Mean of cell numbers (Arbitrary units) [5]: 0.45-0.65 Arbitrary units
Mean of Hippocampus CA3 neurons damaged (Arbitrary units) ([6]; 3 mg/Kg rat): 10.25 Arbitrary units
Mean of Hippocampus CA3 neurons damaged (Arbitrary units) ([6]; 12 mg/Kg rat): 10.16 Arbitrary units
Mean of Hippocampus CA3 neurons damaged (Arbitrary units) ([6]; 25 mg/Kg rat): 1.97 Arbitrary units
minimal effective dose [7]: 12 mg/kg
ABSOLUTE BASOPHIL [8]: 0 per mm^3
BASOPHIL (%) [8]: 0.0%
CALCIUM [8]: 7.7 mg/dL
CREATININE [8]: <1 mg/dL
DIRECT BILIRUBIN [8]: 0.0 mg/dL
EOSINOPHIL (%) [8]: 1.5%
HCT [8]: 46.0%
INDIRECT BILIRUBIN [8]: 0.0 mg/dL
LYMPHOCYTE (%) [8]: 84.0%
MONOCYTE (%) [8]: 0.8%
NRBC (per 100 WBC) [8]: 0.0 per 100 WBC
PHOSPHORUS [8]: 5.7 mg/dL
PLATELET COUNT (Thousands) [8]: 1128.6 Thousands
RBC (Millions) [8]: 8.8 Millions
TOTAL BILIRUBIN [8]: 0.0 mg/dL
WBC (thousands) [8]: 4.7 thousands
blood and neurology examinations (in words) [8]: no abnormalities in blood and neurology examinations
HSP70 expression, delta CNS-PBS [9, 10]: 0.24
HSP70 expression, treatment average [9, 10]: −0.016
HSP70 expression, delta CNS-PBS [9, 11]: 0.11
HSP70 expression, treatment average [9, 11]: −0.45
HSP70 expression, delta CNS-PBS [9, 12]: 0.13
HSP70 expression, treatment average [9, 12]: 0.14
HSP70 expression, delta CNS-PBS [9, 13]: 0.19
HSP70 expression, treatment average [9, 13]: 0.04
HSP70 expression, delta CNS-PBS [9, 14]: −0.088
HSP70 expression, treatment average [9, 14]: −0.159
HSP70 expression, delta CNS-PBS [9, 15]: 0.2
HSP70 expression, treatment average [9, 15]: 0.02
HSP70 expression, delta CNS-PBS [9, 16]: 0.14
HSP70 expression, treatment average [9, 16]: −0.06
HSP70 expression, delta CNS-PBS [9, 17]: 0.17
HSP70 expression, treatment average [9, 17]: −0.32
